Measurements: ChEMBL document CHEMBL1150276, “2-amino-1,3-thiazol-4(5H)-ones as potent and selective 11beta-hydroxysteroid dehydrogenase type 1 inhibitors: enzyme-ligand co-crystal structure and demonstration of pharmacodynamic effects in C57Bl/6 mice” (J Med Chem, 2008)

Experiments:
Mus musculus [1] = test: Ex vivo inhibition of 11beta HSD1 activity in C57BL/6 mouse adipose tissue at 30 mg/kg, po after 6 hrs; assay type: functional; parameters: scale not given: the % may be the effect or the level left
Mus musculus [2] = test: Ex vivo inhibition of 11beta HSD1 activity in C57BL/6 mouse liver at 30 mg/kg, po after 2 hrs; assay type: functional; parameters: scale not given: the % may be the effect or the level left
Plasma [3] = test: Protein binding in C57BL/6 mouse plasma assessed as fraction unbound at 30 mg/kg, po after 6 hrs; assay type: ADME, organism-based; parameters: dose 30 mg/kg, route oral; conditions: in vivo
Mus musculus [4] = test: Ex vivo inhibition of 11beta HSD1 activity in C57BL/6 mouse liver at 30 mg/kg, po after 6 hrs; assay type: functional; parameters: scale not given: the % may be the effect or the level left
[5] = Volume of distribution at steady state in rat at 0.5 mg/kg, iv; assay type: ADME, organism-based; parameters: dose 0.5 mg/kg, route intravenous; conditions: in vivo, read-out: Vdss
[6] = Plasma concentration in C57BL/6 mouse plasma at 30 mg/kg, po after 2 hrs; assay type: ADME, organism-based; parameters: dose 30 mg/kg, route oral
Mus musculus [7] = test: Ex vivo inhibition of 11beta HSD1 activity in C57BL/6 mouse adipose tissue at 30 mg/kg, po after 2 hrs; assay type: functional; parameters: scale not given: the % may be the effect or the level left
Plasma [8] = test: Protein binding in C57BL/6 mouse plasma assessed as fraction unbound at 30 mg/kg, po after 2 hrs; assay type: ADME, organism-based; parameters: dose 30 mg/kg, route oral; conditions: in vivo
[9] = target: 11-beta-hydroxysteroid dehydrogenase 1 (Homo sapiens, UniProt P28845)
Description: Binding affinity to human 11beta HSD1 expressed in Escherichia coli by scintillation proximity assay

[10] = Plasma concentration in C57BL/6 mouse plasma at 30 mg/kg, po after 6 hrs; assay type: ADME, organism-based; parameters: dose 30 mg/kg, route oral
[11] = Oral bioavailability in rat at 2 mg/kg; assay type: ADME, organism-based; conditions: in vivo
[12] = Half life in rat at 2 mg/kg, po; assay type: ADME, organism-based; parameters: dose 2 mg/kg, route oral; conditions: in vivo
[13] = target: 11-beta-hydroxysteroid dehydrogenase 1 (Mus musculus, UniProt P50172); test: Binding affinity to C57BL/6 mouse recombinant 11beta HSD1 by scintillation proximity assay
[14] = Tmax in rat at 2 mg/kg, po; assay type: ADME, organism-based; parameters: dose 2 mg/kg, route oral; conditions: in vivo
[15] = Ratio of Ki for mouse 11beta HSD1 over Ki for human 11beta HSD1
[16] = target: 11-beta-hydroxysteroid dehydrogenase 1 (Rattus norvegicus, UniProt P16232); test: Binding affinity to rat recombinant 11beta HSD1 by scintillation proximity assay
[17] = Clearance in rat at 0.5 mg/kg, iv; assay type: ADME, organism-based; parameters: dose 0.5 mg/kg, route intravenous; conditions: in vivo
Rattus norvegicus = test: AUC(0 to infinity) in rat at 2 mg/kg, po; assay type: ADME, organism-based, Plasma; parameters: time infinity, dose 2 mg/kg, route oral; conditions: in vivo
[18] = target: T1, 11-beta-hydroxysteroid dehydrogenase type 2 (Homo sapiens, UniProt P80365); test: biochemical
T1 sequence (P80365 whole entry): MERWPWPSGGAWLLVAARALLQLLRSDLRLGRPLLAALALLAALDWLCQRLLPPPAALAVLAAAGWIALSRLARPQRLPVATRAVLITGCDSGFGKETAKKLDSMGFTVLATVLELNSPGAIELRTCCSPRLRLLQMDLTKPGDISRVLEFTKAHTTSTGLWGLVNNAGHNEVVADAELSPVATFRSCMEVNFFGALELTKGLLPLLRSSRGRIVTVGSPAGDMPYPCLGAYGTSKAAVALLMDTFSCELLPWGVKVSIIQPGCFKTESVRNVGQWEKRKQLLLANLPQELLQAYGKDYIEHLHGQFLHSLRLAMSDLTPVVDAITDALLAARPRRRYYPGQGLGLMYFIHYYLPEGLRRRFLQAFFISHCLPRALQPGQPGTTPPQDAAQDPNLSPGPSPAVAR
Description: Binding affinity to human 11beta HSD2 in HEK293 cells by scintillation proximity assay

Sequence of 11-beta-hydroxysteroid dehydrogenase 1 (Homo sapiens, UniProt P28845) (P28845 whole entry): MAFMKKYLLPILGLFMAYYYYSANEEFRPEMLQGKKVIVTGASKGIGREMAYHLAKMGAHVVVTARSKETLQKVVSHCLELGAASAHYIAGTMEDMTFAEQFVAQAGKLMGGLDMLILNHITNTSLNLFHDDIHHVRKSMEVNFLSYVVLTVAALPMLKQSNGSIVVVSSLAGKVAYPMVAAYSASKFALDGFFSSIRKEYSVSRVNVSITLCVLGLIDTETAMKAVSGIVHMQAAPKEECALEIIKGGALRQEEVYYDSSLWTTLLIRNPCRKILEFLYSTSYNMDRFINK
Sequence of 11-beta-hydroxysteroid dehydrogenase 1 (Mus musculus, UniProt P50172) (P50172 whole entry): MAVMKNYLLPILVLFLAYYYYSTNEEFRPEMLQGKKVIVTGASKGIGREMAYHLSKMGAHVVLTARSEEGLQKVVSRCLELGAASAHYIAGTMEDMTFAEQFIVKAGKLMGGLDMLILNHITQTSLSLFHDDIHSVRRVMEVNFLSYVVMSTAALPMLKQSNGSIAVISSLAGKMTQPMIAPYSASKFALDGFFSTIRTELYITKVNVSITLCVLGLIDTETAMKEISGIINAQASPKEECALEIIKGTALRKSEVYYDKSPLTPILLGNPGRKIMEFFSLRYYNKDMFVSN
Sequence of 11-beta-hydroxysteroid dehydrogenase 1 (Rattus norvegicus, UniProt P16232) (P16232 whole entry): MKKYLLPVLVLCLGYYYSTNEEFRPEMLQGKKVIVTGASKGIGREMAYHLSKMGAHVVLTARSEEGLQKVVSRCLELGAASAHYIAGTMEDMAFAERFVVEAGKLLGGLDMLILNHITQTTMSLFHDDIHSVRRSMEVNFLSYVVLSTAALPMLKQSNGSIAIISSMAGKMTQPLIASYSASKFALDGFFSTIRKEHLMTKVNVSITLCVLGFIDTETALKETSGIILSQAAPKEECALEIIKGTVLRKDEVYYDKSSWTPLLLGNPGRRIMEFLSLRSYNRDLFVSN

| SMILES | Ki [9] [µM] | IC50 [18] [µM] | other results |
| --- | --- | --- | --- |
| O=C1N=C(NC23CC4CC(CC2C4)C3)SC12CCCC2 | 0.003 | > 10 | Activity (Mus musculus [1]): 87%; Activity (Mus musculus [2]): 89%; Activity (Plasma [3]): 44 nM; Fu (Plasma [3]): 0.63%; Activity (Mus musculus [4]): 79%; Vd [5]: 1.84 L/kg; concentration at 2 h [6]: 20 µM; Activity (Mus musculus [7]): 86%; Activity (Plasma [8]): 120 nM; Fu (Plasma [8]): 0.63%; concentration at 6 h [10]: 7.3 µM; bioavailability [11]: 45%; half-life [12]: 2 h; Ki [13]: 0.12 µM; Tmax [14]: 2.5 h; Ratio Ki [15]: 40; Ki [16]: 0.18 µM; clearance [17]: 104 mL/min/kg; AUC (Rattus norvegicus): 175 ng·h/mL |
| CCCC1(C)SC(NC23CCC(CC2)C3)=NC1=O (racemic) | 0.025 | – | – |
| CCC1(C)SC(NC2CCCCCC2)=NC1=O (racemic) | 0.082 | > 10 | – |
| CCCC1(C)SC(NC23CC4CC(CC(C4)C2)C3)=NC1=O (racemic) | 0.024 | – | – |
| CCC1(CC)SC(NC23CC4CC(CC(C4)C2)C3)=NC1=O | 0.02 | – | – |
| CCC1(C)SC(NC2C(C)(C)C2(C)C)=NC1=O (racemic) | 0.058 | – | – |
| CCCC1(C)SC(NC2CCCCCC2)=NC1=O (racemic) | 0.032 | > 10 | – |
| CCCC1(C)SC(NC2C3CCC2CC3)=NC1=O (racemic) | 0.149 | > 10 | – |
| CCC1(C)SC(NC23CC4CC(CC2C4)C3)=NC1=O (racemic) | 0.013 | > 10 | – |
| CCCC1(C)SC(NC2CCCCC2)=NC1=O (racemic) | 0.055 | – | – |
| CCCC1(C)SC(NC2CCCCCCC2)=NC1=O (racemic) | 0.028 | > 10 | – |
| CCCC1(C)SC(NCC2CCCCC2)=NC1=O (racemic) | 0.034 | – | – |
| CCC1(C)SC(NC2CCCCC2)=NC1=O (racemic) | 0.126 | – | – |
| O=C1N=C(NC23CC4CC(CC(C4)C2)C3)SC12CCCC2 | 0.028 | – | – |
| CCC1(CC)SC(NC23CC4CC(CC2C4)C3)=NC1=O | 0.013 | > 10 | – |
| CCC1(C)SC(NC23CC4CC(CC(C4)C2)C3)=NC1=O (racemic) | 0.024 | – | – |
| O=C1N=C(NC2CCCCCCC2)SC12CCCC2 | 0.014 | > 10 | – |
| CCC1(C)SC(NC2CCCCCCC2)=NC1=O (racemic) | 0.047 | > 10 | – |
| CCC1(C)SC(NC2C3CCC2CC3)=NC1=O (racemic) | 0.372 | – | – |
| CCC1(C)SC(NC23CCC(CC2)C3)=NC1=O (racemic) | 0.073 | > 10 | – |
| CCC1(C)SC(NCC2CCCCC2)=NC1=O (racemic) | 0.064 | – | – |
| CCCC1(C)SC(NC2C(C)(C)C2(C)C)=NC1=O (racemic) | 0.038 | – | – |
| CCCC1(C)SC(NC23CC4CC(CC2C4)C3)=NC1=O (racemic) | 0.012 | – | – |
| CCC1(C)SC(Nc2ccccc2F)=NC1=O (configuration not stated) | 0.151 | – | – |
| CCC1(CC)SC(NC2CCCCCCC2)=NC1=O | 0.026 | > 10 | – |
| CCC1SC(Nc2ccccc2C)=NC1=O (configuration not stated) | 0.189 | > 10 | – |
